Experimental data from patent US20080214537A1, “BRIDGED PHENANTHRIDINES” (CARA THERAPEUTICS, INC., priority 2007, published 2008).

Legend:
[1] = target: human CB2 receptor (hCB2) (Homo sapiens, UniProt P34972); experiment: cAMP assay (LANCE TR-FRET) in CHO-K1 cells expressing hCB2; type: cell-based; conditions: for Emax: CHO-K1, intrinsic activity: percent maximal activation compared to full activation by CP55,940 (1 μM = 100%), read-out: hCB2 % Max Range; for EC50: CHO-K1 cells stably expressing hCB2, intracellular cAMP, NKH-477 prestimulated, average of at least three replicates
Description: (§1) The ability of compounds to act as agonists or inverse agonists at human CB2 and CB1 receptors (hCB2, hCB1, respectively) was determined by measuring changes in intracellular cAMP levels. Chinese Hamster Ovary (CHO-K1) cell lines stably expressing hCB2 (Genebank: X74328) or hCB1 (Genebank: X54937) were purchased from Euroscreen (Gosselies, Belgium).
(§2) Cell lines were grown in suspension in EX-CELL 302 CHO Serum-free medium (Sigma, catalog #14324C) supplemented with 1% Fetal Bovine Serum, glutamine and with or without non-essential amino-acids under 0.4 mg/mL G418 selection.
(§3) Receptor mediated responses were determined by measuring changes in intracellular cAMP using LANCE cAMP detection kit (catalog #AD0264, PerkinElmer, Wellesley, Mass.) based on time-resolved fluorescence resonance energy transfer (TR-FRET). Changes in cAMP were determined in cells pre-incubated with IBMX (isobutyl methylxanthine) and prestimulated with NKH-477 (a water soluble forskolin derivative, catalog #1603, Tocris, Ellisville, Mo.) to increase basal cAMP levels as detailed below.
(§4) On the day of the experiment, cells were spun at low speed for 5 min at room temperature. The supernatant was removed and cells were resuspended in stimulation buffer (Hanks Buffered Salt Solution/5 mM HEPES, containing 0.5 mM IBMX (catalog #17018, Sigma) and 0.02% BSA (PerkinElmer, catalog #CR84-100)). Cell clumps were removed by filtering through cell strainer 40 μm (BD Falcon, Discovery Labware, Bedford, Mass.) and diluted to 2×10^5 cells/mL. Antibody supplied with the LANCE cAMP immunoassay kit was then added according to the manufacturer's instructions. An aliquot of cells was taken for un-induced controls. To the remaining cells was added NKH-477 (a water soluble forskolin derivative, Tocris catalog #1603) to a final concentration of 2-8 μM. Cells were then incubated for either 25 or 30 min at room temperature prior to adding to Proxiplates containing test compounds (final DMSO concentration was less than 0.5%) with a Multidrop bulk dispenser, followed by a sixty minute incubation at room temperature. The response was stopped by addition of the detection mix supplied with the LANCE kit.
(§5) The reagents were allowed to equilibrate for three hours prior to reading on an Envision multi-mode detector (PerkinElmer). TR-FRET was measured using a 330-380 nm excitation filter, 615 and 665 nm emission filters, dichroic mirror 380 nm and Z=1 mm.
(§6) Cyclic AMP concentrations in each well were back-calculated from a cAMP standard curve run concurrently during each assay. Each plate contained 16 wells of forskolin stimulated cells and 16 wells of forskolin plus CP55,940-treated. CP55,940-treated cells were treated with CP55,940 (Tocris catalog #0949) at 1 μM and the maximal response was used as the full range (100%) standard. WIN55,212 (Tocris catalog #1038) was used as an internal standard. Concentrations of cAMP were expressed as a percent of the difference of these two groups of wells. Concentration-response data including EC50 (the concentration of compound producing 50% of the maximal response) and intrinsic activity (the percent maximal activation compared to full activation by CP55,940) were determined using a four-parameter non-linear regression algorithm (Xlfit equation 251, IDBS). Assays were performed with at least three replicates per compound and averaged results for the several compounds of the invention are shown in Table I.

[2] = target: human CB1 receptor (hCB1) (Homo sapiens, UniProt P21554); experiment: cAMP assay (LANCE TR-FRET) in CHO-K1 cells expressing hCB1; type: cell-based; conditions: activity on hCB1 represents inverse agonism; for Emax: CHO-K1, percent of range defined by CP55,940 (1 μM = 100%), read-out: hCB1 % Max Range; for EC50: CHO-K1 cells stably expressing hCB1, intracellular cAMP, NKH-477 prestimulated
Description: as §1, §2, §3, §4, §5
as §6, with “IDBS).” for “IDBS). Assays were performed with at least three replicates per compound and averaged results for the several compounds of the invention are shown in Table I.”

Chain of human CB1 receptor (hCB1) (P21554 whole entry): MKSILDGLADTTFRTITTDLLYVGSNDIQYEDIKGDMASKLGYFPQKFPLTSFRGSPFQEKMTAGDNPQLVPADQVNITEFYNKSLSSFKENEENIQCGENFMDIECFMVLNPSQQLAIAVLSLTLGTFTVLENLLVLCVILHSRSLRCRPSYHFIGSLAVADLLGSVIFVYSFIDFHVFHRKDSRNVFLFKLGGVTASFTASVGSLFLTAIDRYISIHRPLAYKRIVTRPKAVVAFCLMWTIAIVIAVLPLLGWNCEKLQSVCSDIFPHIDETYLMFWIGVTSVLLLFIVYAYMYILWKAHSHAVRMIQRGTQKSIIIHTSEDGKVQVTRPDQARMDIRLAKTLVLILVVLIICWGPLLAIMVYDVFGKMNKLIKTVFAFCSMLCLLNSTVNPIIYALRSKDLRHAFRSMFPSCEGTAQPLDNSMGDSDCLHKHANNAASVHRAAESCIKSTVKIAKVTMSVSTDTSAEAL
Chain of human CB2 receptor (hCB2) (P34972 whole entry): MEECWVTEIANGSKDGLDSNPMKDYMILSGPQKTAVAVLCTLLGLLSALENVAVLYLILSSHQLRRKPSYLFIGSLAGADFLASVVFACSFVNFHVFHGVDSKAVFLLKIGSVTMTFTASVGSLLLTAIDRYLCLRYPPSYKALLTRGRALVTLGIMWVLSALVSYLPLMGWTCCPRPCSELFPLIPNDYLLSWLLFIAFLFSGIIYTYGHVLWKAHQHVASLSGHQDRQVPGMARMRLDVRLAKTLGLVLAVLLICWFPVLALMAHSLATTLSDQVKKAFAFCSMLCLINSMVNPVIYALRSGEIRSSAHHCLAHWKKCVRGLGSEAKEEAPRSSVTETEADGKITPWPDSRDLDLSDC

Row | SMILES | Emax [1] [%] | EC50 [1] [nM] | Emax [2] [%] | EC50 [2] [µM] | hCB1 % Max Range ([2]; percent of range defined by CP55,940 (1 μM = 100%)) [%]
1 | Cc1ccc(C2Nc3ccc(N4CCOCC4)cc3C3C4CCC(C4)C23)cc1 (stereo not drawn) [(18), Bridged 4-(6-p-tolyl-5,6,6a,7,8,9,10,10a-octahydrophenanthridin-2-yl)morpholine] | < 40 | > 10000 | < 40 | > 10 | –
2 | O=C(NCc1ccccc1)c1ccc2c(c1)C1C3CCC(C3)C1C(c1ccccc1)N2 (stereo not drawn) [(28), Bridged N-benzyl-6-phenyl-5,6,6a,7,8,9,10,10a-octahydrophenanthridine-2-carboxamide] | 84.4 | 373 | < 40 | > 10 | –
3 | O=S(=O)(c1ccc2c(c1)C1C3CCC(C3)C1C(c1nccs1)N2)N1CCOCC1 (stereo not drawn) [(36), Bridged 4-(6-(thiazol-2-yl)-5,6,6a,7,8,9,10,10a-octahydrophenanthridin-2-ylsulfonyl)morpholine] | 57.1 | 4120 | < 40 | > 10 | –
4 | CC(=O)Nc1ccc2c(c1)C1C3CCC(C3)C1C(c1ccccc1)N2 (stereo not drawn) [(23), Bridged N-(6-phenyl-5,6,6a,7,8,9,10,10a-octahydrophenanthridin-2-yl)acetamide] | 82 | 43 | 88 | 2.61 | –
5 | CC(=O)Nc1ccc2c(c1)C1C3CCC(C3)C1C(c1ccc(C)cc1)N2 (single isomer, unassigned) [(25a), Bridged N-(6-p-tolyl-5,6,6a,7,8,9,10,10a-octahydrophenanthridin-2-yl)acetamide] | < 40 | > 10000 | – | 3.28 | 78
6 | Cc1ccc(C2Nc3ccc(S(=O)(=O)N4CCCCC4)cc3C3C4CCC(C4)C23)cc1 (stereo not drawn) [(10), Bridged 2-(piperidin-1-ylsulfonyl)-6-p-tolyl-5,6,6a,7,8,9,10,10a-octahydrophenanthridine] | 98 | 21 | < 40 | > 10 | –
7 | O=S(=O)(c1ccc2c(c1)C1CC=CC1C(c1ccccc1)N2)N1CCCCC1 (stereo not drawn) [(48), 4-phenyl-8-(piperidin-1-ylsulfonyl)-3a,4,5,9b-tetrahydro-1H-cyclopenta[c]quinoline] | 82.3 | 73.9 | < 40 | > 10 | –
8 | COCCC(=O)Nc1ccc2c(c1)C1C3CCC(C3)C1C(c1ccccc1)N2 (stereo not drawn) [(12), Bridged 3-methoxy-N-(6-phenyl-5,6,6a,7,8,9,10,10a-octahydrophenanthridin-2-yl)propanamide] | 82 | 12.4 | < 40 | > 10 | –
9 | O=S(=O)(c1ccc2c(c1)C1C3CCC(C3)C1C(c1c(Cl)cccc1Cl)N2)N1CCCCC1 (stereo not drawn) [(9), Bridged 6-(2,6-dichlorophenyl)-2-(piperidin-1-ylsulfonyl)-5,6,6a,7,8,9,10,10a-octahydrophenanthridine] | 75 | 79.4 | < 40 | > 10 | –
10 | CCCNC(=O)Nc1ccc2c(c1)C1C3CCC(C3)C1C(c1c(Cl)cccc1Cl)N2 (stereo not drawn) [(26), Bridged 1-(6-(2,6-dichlorophenyl)-5,6,6a,7,8,9,10,10a-octahydrophenanthridin-2-yl)-3-propylurea] | < 40 | > 10000 | < 40 | > 10 | –
11 | O=C(Nc1ccc2c(c1)C1C3CCC(C3)C1C(c1c(Cl)cccc1Cl)N2)C1CC1 (stereo not drawn) [(20), Bridged N-(6-(2,6-dichlorophenyl)-5,6,6a,7,8,9,10,10a-octahydrophenanthridin-2-yl)cyclopropanecarboxamide] | < 40 | > 10000 | < 40 | > 10 | –
12 | CN(C)S(=O)(=O)c1ccc2c(c1)C1C3CCC(C3)C1C(c1cncnc1)N2 (stereo not drawn) [(30), Bridged N,N-dimethyl-6-(pyrimidin-5-yl)-5,6,6a,7,8,9,10,10a-octahydrophenanthridine-2-sulfonamide] | 99.3 | 72.8 | < 40 | > 10 | –
13 | Cn1nccc1C1Nc2ccc(S(=O)(=O)N3CCOCC3)cc2C2C3CCC(C3)C12 (stereo not drawn) [(37), Bridged 4-(6-(1-methyl-1H-pyrazol-5-yl)-5,6,6a,7,8,9,10,10a-octahydrophenanthridin-2-ylsulfonyl)morpholine] | 92.6 | 1.7 | < 40 | > 10 | –
14 | c1ccc(C2Nc3ccc(N4CCOCC4)cc3C3C4CCC(C4)C23)cc1 (stereo not drawn) [(17), Bridged 4-(6-phenyl-5,6,6a,7,8,9,10,10a-octahydrophenanthridin-2-yl)morpholine] | 94 | 140 | < 40 | > 10 | –
15 | O=C(CC1CCCO1)Nc1ccc2c(c1)C1C3CCC(C3)C1C(c1ccccc1)N2 (stereo not drawn) [(14), Bridged N-(6-phenyl-5,6,6a,7,8,9,10,10a-octahydrophenanthridin-2-yl)-2-(tetrahydrofuran-2-yl) acetamide] | 92 | 9.1 | < 40 | > 10 | –
16 | O=C(Nc1ccc2c(c1)C1C3CCC(C3)C1C(c1ccccc1)N2)c1cocn1 (stereo not drawn) [(13), Bridged N-(6-phenyl-5,6,6a,7,8,9,10,10a-octahydrophenanthridin-2-yl)oxazole-4-carboxamide] | 57 | 680 | < 40 | > 10 | –
17 | NS(=O)(=O)c1ccc2c(c1)C1C3CCC(C3)C1C(c1ccccc1)N2 (stereo not drawn) [(39), Bridged 6-phenyl-5,6,6a,7,8,9, 10,10a-octahydrophenanthridine-2-sulfonamide] | 83.3 | 17.7 | 172 | 3.04 | –
18 | CCCNC(=S)Nc1ccc2c(c1)C1C3CCC(C3)C1C(c1c(Cl)cccc1Cl)N2 (stereo not drawn) [(27), Bridged 1-(6-(2,6-dichlorophenyl)-5,6,6a,7,8,9,10,10a-octahydrophenanthridin-2-yl)-3-propylthiourea] | < 40 | > 10000 | < 40 | > 10 | –
19 | CCCCC(=O)Nc1ccc2c(c1)C1C3CCC(C3)C1C(c1ccc(C)cc1)N2 (stereo not drawn) [(29), Bridged N-(6-p-tolyl-5,6,6a,7,8,9,10,10a-octahydrophenanthridin-2-yl)pentanamide] | 54.8 | 66.7 | < 40 | > 10 | –
20 | CCCNC(=S)Nc1ccc2c(c1)C1C3CCC(C3)C1C(c1ccccc1)N2 (stereo not drawn) [(6), Bridged 1-propyl-3-(phenyl-5,6,6a,7,8,9,10,10a-octahydrophenanthridin-2-yl)thiourea] | 76 | 99.8 | 53 | 1.86 | –
21 | CN(C)S(=O)(=O)c1ccc2c(c1)C1C3CCC(C3)C1C(c1ccnn1C)N2 (stereo not drawn) [(33), Bridged N,N-dimethyl-6-(1-methyl-1H-pyrazol-5-yl)-5,6,6a,7,8,9,10,10a-octahydrophenanthridine-2-sulfonamide] | 94.9 | 7.5 | < 40 | > 10 | –
